The subject of assay [1] is T1, Escherichia coli C43(DE3).
T1 construct: C43(DE3) carrying empty pET28 vector
Put plainly: microbe, parasite or virus in culture. Also noted: antibiotic susceptibility testing of E. coli strains, MIC, median of replicates. The following applies: D=+IPTG +Kan, median MIC, empty pET28, IPTG and kanamycin present. The source says: (§1) Supplementary file pbio.3003427.s003.docx: S3 Table Antibiotic susceptibility testing for TesA and YbbP knockout strains. (DOCX)

The test system of assay [2] is T2, Escherichia coli BW25113.
T2 construct: BW25113
Put plainly: microbe, parasite or virus in culture. Also noted: antibiotic susceptibility testing of E. coli strains, MIC, median of replicates. The note with it: read-out: Median MIC.
Text: as §1

In assay [3] the target is T3, PaTesA (Pseudomonas aeruginosa, UniProt Q9HZY8).
T3 construct: gene tesA; purified, N-terminal tag
Put plainly: absorbance at […] nm. Type of assay: biochemical. The note with it: purified tagged enzyme.

Assay [4] addresses T4, YbbAP-TesA (Escherichia coli, UniProt P0ADA1).
T4 construct: co-expressed from pETDuet1-based plasmids in E. coli C43(DE3); His-tag on YbbA; complex in LMNG detergent; 2:1:1 YbbA:YbbP:TesA; Uncharacterized ABC transporter permease YbbP
T4 sequence (P0ADA1 27-208): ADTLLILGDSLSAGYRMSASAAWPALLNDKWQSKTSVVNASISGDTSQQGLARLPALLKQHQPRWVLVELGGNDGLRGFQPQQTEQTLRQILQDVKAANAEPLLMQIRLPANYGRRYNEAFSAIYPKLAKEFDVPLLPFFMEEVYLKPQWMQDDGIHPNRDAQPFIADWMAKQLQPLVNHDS
T4 sequence (P0A9T8 1-228 partner): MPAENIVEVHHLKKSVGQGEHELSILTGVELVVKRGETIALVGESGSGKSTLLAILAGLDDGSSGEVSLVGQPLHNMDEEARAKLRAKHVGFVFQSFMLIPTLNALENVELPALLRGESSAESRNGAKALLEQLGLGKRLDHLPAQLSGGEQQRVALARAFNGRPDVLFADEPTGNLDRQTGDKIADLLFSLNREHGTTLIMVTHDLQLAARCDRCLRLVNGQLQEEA
T4 sequence (P77504 1-804 partner): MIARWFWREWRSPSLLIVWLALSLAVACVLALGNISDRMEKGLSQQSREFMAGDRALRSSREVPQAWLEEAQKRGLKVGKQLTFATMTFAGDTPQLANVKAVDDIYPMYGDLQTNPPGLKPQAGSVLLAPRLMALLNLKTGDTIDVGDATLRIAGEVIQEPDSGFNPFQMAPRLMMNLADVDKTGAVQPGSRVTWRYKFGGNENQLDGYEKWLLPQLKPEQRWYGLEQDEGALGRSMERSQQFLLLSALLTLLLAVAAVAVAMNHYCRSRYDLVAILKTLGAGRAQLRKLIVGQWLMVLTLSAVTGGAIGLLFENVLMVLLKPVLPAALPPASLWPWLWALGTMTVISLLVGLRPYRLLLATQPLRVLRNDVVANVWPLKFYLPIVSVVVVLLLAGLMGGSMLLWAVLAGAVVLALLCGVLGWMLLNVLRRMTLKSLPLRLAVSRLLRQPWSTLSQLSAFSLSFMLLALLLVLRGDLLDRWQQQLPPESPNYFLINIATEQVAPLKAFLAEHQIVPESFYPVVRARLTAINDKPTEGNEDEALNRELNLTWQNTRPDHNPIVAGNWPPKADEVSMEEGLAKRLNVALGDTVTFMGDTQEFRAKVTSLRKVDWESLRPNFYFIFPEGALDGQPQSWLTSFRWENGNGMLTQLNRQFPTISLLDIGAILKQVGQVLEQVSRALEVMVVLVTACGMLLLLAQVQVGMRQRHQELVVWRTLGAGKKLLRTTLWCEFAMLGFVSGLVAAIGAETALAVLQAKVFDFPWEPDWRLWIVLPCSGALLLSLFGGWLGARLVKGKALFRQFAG
As to the kind of experiment: Michaelis-Menten, absorbance at […] nm. Format: biochemical. The note with it: PBS with 0.01% LMNG, 21 °C.

The target in assay [5] is T5, TesA (Escherichia coli, UniProt P0ADA1).
T5 sequence (P0ADA1 27-208): T4 sequence (P0ADA1 27-208)
Put plainly: absorbance assay. Also noted: isolated TesA; for the cell assays expressed from a pET vector in E. coli delta-tesA (Keio) cells. Type of assay: biochemical. The note with it: isolated TesA.

In assay [6] the target is T5, TesA. Put plainly: ester hydrolysis by live cells expressing TesA, absorbance at […] nm. Type of assay: cell-based. Also noted: for the cell assays expressed from a pET vector in E. coli delta-tesA (Keio) cells. The following applies: PBS; live E. coli delta-tesA cells; 2.5 mM substrate after mixing.
Assay [7] deals with T6, YbbP (E. coli, UniProt P77504 1-804).
T6 construct: YbbP, transmembrane component (10 transmembrane helices, two periplasmic domains) of the YbbAP Type VII ABC transporter, Escherichia coli; source: size exclusion chromatography for structure determination), in 0.01% LMNG
T6 sequence: T4 sequence (P77504 1-804 partner)
As to the kind of experiment: cryo-EM structure; YbbAP-TesA(Ser36Ala) complex with AMP-PNP, co-expressed and co-purified (Ni-affinity, SEC), 0.01% LMNG; 4.6 Å. The note with it: both partners purified.

Residue numbers refer to the chain shown, from its start. Converted amounts (≈) assume the structure as drawn.

T3 sequence (Q9HZY8 22-201): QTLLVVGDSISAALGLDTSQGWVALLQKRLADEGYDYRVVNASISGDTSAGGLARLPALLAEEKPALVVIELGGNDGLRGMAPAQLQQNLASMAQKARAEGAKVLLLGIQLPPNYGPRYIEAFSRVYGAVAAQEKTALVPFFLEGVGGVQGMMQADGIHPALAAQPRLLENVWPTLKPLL

Take `CC1(C)S[C@@H]2[C@H](NC(=O)[C@H](N)c3ccccc3)C(=O)N2[C@H]1C(=O)O` [Ampicillin]: in assay [1], the MIC stood at 8 µg/mL (≈ 22.9 µM).

Take `CC(=O)OCC1=C(C(=O)O)N2C(=O)[C@@H](NC(=O)Cc3cccs3)[C@H]2SC1` [Cephalothin]: the MIC in assay [2] is 12 µg/mL (≈ 30.3 µM).

As to `CC1(C)S[C@@H]2[C@H](NC(=O)Cc3ccccc3)C(=O)N2[C@H]1C(=O)O` [Penicillin G], the MIC in assay [2] is 32 µg/mL (≈ 95.7 µM).

On to `O=C(Cc1cccs1)N[C@@H]1C(=O)N2C(C(=O)O)=C(/C=C/c3ccc([N+](=O)[O-])cc3[N+](=O)[O-])CS[C@H]12` [nitrocefin], for which, in assay [3], the “absorbance at 488 nm” value is “We also separately confirmed that the P. aeruginosa TesA can hydrolyze nitrocefin”. The Km in assay [4] was under 0.01 µM. Besides, the absorbance assay result in assay [5] is given as “YbbAP-TesA (and isolated TesA) can hydrolyze nitrocefin”.

With `CCCC(=O)Oc1ccc([N+](=O)[O-])cc1` [p-nitrophenyl butyrate], in assay [6], the relative rate entry is on record as “expressing either TesA (or YbbAP-TesA) from a plasmid show robust hydrolytic activity”.

B1: YbbA (natural protein, E. coli)
chain: T4 sequence (P0A9T8 1-228 partner)
notes: also called ABC domain; source: size exclusion chromatography for structure determination), in 0.01% LMNG
Consider B1, for which the “stoichiometry N” value in assay [7] is 2.

B2: TesA Ser36Ala (enzyme, E. coli, UniProt P0ADA1 27-208, looked up)
chain: T4 sequence (P0ADA1 27-208) with S10A
notes: TesA, periplasmic multifunctional esterase/thioesterase/lysophospholipase, Escherichia coli, with the catalytic site mutation Ser36Ala; printed residue numbers fit the precursor with its signal peptide; also called TesA catalytic site mutation (Ser36Ala); source: size exclusion chromatography for structure determination), in 0.01% LMNG
With B2, the “stoichiometry N” value in assay [7] came out at 1.

What is called Km is the substrate concentration at which the rate is half of its maximum. Broadly, the stoichiometry N is a count of units in the complex or per binding partner.

These data come from paper PMC12646458, “Structural characterization of the YbbAP-TesA ABC transporter identifies it as a lipid hydrolase complex that extracts hydrophobic compounds from the bacterial inner membrane” (PLOS Biology, 2025).
